Measurements as given in ChEMBL document CHEMBL5131428, “Discovery of potent antiproliferative agents from selected oxygen heterocycles as EGFR tyrosine kinase inhibitors from the U.S. National Cancer Institute database by in silico screening and bioactivity evaluation” (Bioorg Med Chem Lett, 2022).

How the values were obtained:
[1] = tested on: HeLa; test: Antiproliferative activity against human HeLa cells assessed as cell growth inhibition by MTT assay; format: functional, cell-based
[2] = tested on: A-431; test: Antiproliferative activity against human A-431 cells overexpressing EGFR assessed as cell survival at 10 uM relative to control; format: functional; settings: read-out: Survival
[3] = tested on: A-431; test: Antiproliferative activity against human A-431 cells overexpressing EGFR assessed as cell growth inhibition by MTT assay; format: functional, cell-based
[4] = target: T1, Epidermal growth factor receptor (Homo sapiens, UniProt P00533); test: Inhibition of EGFR tyrosine kinase (unknown origin)
T1 sequence (P00533 whole entry): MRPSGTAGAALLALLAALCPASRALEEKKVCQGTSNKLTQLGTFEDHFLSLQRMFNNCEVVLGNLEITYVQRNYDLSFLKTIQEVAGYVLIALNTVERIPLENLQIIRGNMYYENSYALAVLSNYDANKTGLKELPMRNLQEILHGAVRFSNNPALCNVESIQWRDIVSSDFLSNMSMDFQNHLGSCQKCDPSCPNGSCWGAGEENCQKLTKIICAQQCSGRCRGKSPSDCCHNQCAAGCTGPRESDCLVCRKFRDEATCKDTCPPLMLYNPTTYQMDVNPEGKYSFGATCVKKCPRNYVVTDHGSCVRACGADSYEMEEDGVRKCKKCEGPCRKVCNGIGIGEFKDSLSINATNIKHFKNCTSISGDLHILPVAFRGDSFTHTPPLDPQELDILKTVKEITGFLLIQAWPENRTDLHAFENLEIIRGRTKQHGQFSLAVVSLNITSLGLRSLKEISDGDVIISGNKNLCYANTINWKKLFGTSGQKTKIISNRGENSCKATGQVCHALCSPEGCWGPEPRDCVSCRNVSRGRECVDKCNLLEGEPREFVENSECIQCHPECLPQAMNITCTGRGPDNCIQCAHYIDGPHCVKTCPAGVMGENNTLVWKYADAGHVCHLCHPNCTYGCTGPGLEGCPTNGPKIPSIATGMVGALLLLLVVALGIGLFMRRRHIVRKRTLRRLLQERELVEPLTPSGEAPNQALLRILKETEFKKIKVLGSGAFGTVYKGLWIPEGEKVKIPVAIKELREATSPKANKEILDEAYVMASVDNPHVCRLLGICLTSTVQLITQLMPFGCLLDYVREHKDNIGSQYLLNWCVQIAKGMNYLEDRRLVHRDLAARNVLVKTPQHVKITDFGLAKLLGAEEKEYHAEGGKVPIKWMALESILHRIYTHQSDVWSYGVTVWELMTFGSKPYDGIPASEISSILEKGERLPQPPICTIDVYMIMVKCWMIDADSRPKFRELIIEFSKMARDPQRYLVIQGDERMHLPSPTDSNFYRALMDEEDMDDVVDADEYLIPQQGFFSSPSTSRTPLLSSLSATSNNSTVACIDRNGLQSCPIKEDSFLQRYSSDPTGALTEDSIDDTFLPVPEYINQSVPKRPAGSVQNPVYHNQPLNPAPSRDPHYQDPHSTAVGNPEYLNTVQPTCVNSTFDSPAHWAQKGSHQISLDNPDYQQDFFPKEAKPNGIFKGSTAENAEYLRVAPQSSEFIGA

[5] = target: T1, Epidermal growth factor receptor; test: Inhibition of EGFR tyrosine kinase (unknown origin) preincubated for 5 mins followed by substrate addition and further incubated for 10 mins in presence of ATP by fluorescence based microplate reader analysis

Row | Compound | IC50 [1] | viability at 10 µM [2] | IC50 [3] | IC50 [4] | IC50 [5]
1 | CCc1ccc(C2=C(O)C(=O)C(c3ccc(CC)cc3)=C(O)C2=O)cc1 | 17.3 µM | 17% | 17.7 µM | 0.0302 µM | 
2 | COc1cccc2c1C(=O)C1=C(C2=O)c2c(O)cc(CO)cc2[C@@H](O)[C@@H]1O | 1.74 µM | < 6% | 6.04 µM | 0.00654 µM | 
3 | C=CC(C)(C)c1c2c(c(O)c3c(=O)c4ccc(O)c(O)c4oc13)C=CC(C)(C)O2 [MACLURAXANTHONE] | 0.95 µM | 49% | 2.84 µM |  | 
4 | Cc1c2cc(O)c(=O)cc-2oc2cc(O)c(O)cc12 |  | 57% |  |  | 
5 | O=c1c2ccccc2oc2cc([C@H](O)c3ccccc3)ccc12 |  | 57% |  |  | 
6 | O=C1c2ccccc2C(=O)c2c(O)c3c(c(O)c21)CCCC3 |  | 57% |  |  | 
7 | COC1=CC(=C(c2ccc(O)c(OC)c2)c2ccc(O)c(OC)c2)C=CC1=O |  | 57% |  |  | 
8 | COc1c(O)cc2oc3cc(O)c(CC=C(C)C)c(O)c3c(=O)c2c1CC=C(C)C [MANGOSTIN] | 12 µM | < 6% | 7.2 µM |  | 
9 | O=c1c2cccc(O)c2oc2cccc(O)c12 |  |  |  |  | 0.9 µM
10 | COc1ccc(-c2cc(=O)cc(-c3ccc(OC)cc3)o2)cc1 | 8.12 µM | < 6% | 3.81 µM | 0.00015 µM | 
